# Target: T1, recombinant human mPGES-1 (Homo sapiens, UniProt O14684)
# T1 construct: made in house; host or cells: Rosetta E. coli (microsomal/membrane fraction)
# T1 sequence (O14684 1-152): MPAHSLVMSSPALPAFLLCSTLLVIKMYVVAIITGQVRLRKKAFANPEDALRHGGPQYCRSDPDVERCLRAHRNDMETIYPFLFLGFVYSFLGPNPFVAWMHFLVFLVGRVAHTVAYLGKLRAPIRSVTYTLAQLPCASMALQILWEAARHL
# Test: mPGES-1 inhibition test (microsomes, PGH2 substrate, HTRF detection of PGE2)
# Type: biochemical
# Details: inhibition of mPGES-1 at 1 μM (marked in cell)
# Method in brief: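 PGE2 formed from PGH2 in one minute by E. coli-expressed microsomal enzyme (pH 7.4, 2.5 mM GSH) was measured by competitive HTRF against a synthetic PGE2 standard curve. Compounds were preincubated 25 min at room temperature.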
row,inhibition at 1 µM [%],SMILES
1,96,"Cc1ccc(Cl)c(Nc2nc3cc(C(=O)NC4CCCCC4)c(F)cc3[nH]2)c1F [Example 649, 2-(6-Chloro-2-fluoro-3-methyl-phenylamino)-N-cyclohexyl-6-fluoro-1H-benzimidazole-5-carboxamide]"

# Same assay, conditions: inhibition of mPGES-1 at 10 μM
row,SMILES,inhibition at 10 µM [%]
1,"Cn1c(Nc2ccc(F)cc2Cl)nc2cc(C(=O)Nc3ccc(Br)cc3)ccc21 [Example 456, N-(4-Bromophenyl)-2-(2-chloro-4-fluorophenylamino)-1-methyl-1H-benzimidazole-5-carboxamide]",100
2,"O=C(NC1CCC(C(F)(F)F)CC1)c1ccc2[nH]c(Nc3c(Cl)cccc3Cl)nc2c1 (stereo not shown) [Example 230, 2-(2,6-Dichloro-phenylamino)-1H-benzimidazole-5-carboxylic acid (4-trifluoromethyl-cyclohexyl)-amide]",99
3,"Cn1c(NC(=O)c2ccc3[nH]c(Nc4c(Cl)cccc4Cl)nc3c2)nc2ccccc21 [Example 81, 2-(2,6-Dichloro-phenylamino)-1H-benzimidazole-5-carboxylic acid (1-methyl-benzimidazol-2-yl)-amide]",84
4,"O=C(Nc1ccc(Br)cc1)c1ccc2[nH]c(Nc3cccc(Cl)c3C(F)(F)F)nc2c1 [Example 333, 2-(3-Chloro-2-trifluoromethyl-phenylamino)-1H-benzimidazole-5-carboxylic acid (4-bromo-phenyl)-amide]",94
5,"CC(C)(C)[C@H]1CC[C@@H](NC(=O)c2cc3nc(Nc4c(F)cccc4Cl)[nH]c3cc2F)CC1 [Example 378, N-((1s,4s)-4-tert.-Butylcyclohexyl)-2-(2-chloro-6-fluorophenylamino)-6-fluoro-1H-benzimidazole-5-carboxamide]",100
6,"O=C(Nc1ccc(I)cc1)c1ccc2[nH]c(Nc3c(Cl)cccc3Cl)nc2c1 [Example 84, 2-(2,6-Dichloro-phenylamino)-1H-benzimidazole-5-carboxylic acid (4-iodo-phenyl)-amide]",100
7,"O=C(Nc1ccccc1Cl)c1ccc2[nH]c(Nc3c(Cl)cccc3Cl)nc2c1 [Example 284, 2-(2,6-Dichloro-phenylamino)-1H-benzimidazole-5-carboxylic acid (2-chloro-phenyl)-amide]",100
8,"Cc1cc(NC(=O)c2cc3nc(Nc4c(Cl)cccc4Cl)n(C)c3cc2F)ncc1Cl [Example 127, 2-(2,6-Dichloro-phenylamino)-6-fluoro-1-methyl-1H-benzimidazole-5-carboxylic acid (5-chloro-4-methyl-pyridin-2-yl)-amide]",100
9,"O=C(Nc1nc2c(s1)CCCC2)c1ccc2[nH]c(Nc3c(Cl)cccc3Cl)nc2c1 [Example 79, 2-(2,6-Dichloro-phenylamino)-1H-benzimidazole-5-carboxylic acid (4,5,6,7-tetrahydro-benzothiazol-2-yl)-amide]",100
10,"CCCCCCNC(=O)c1cc2nc(Nc3c(Cl)cccc3Cl)n(C)c2cc1F [Example 373, 2-(2,6-Dichlorophenylamino)-6-fluoro-N-hexyl-1-methyl-1H-benzimidazole-5-carboxamide]",100
11,"COc1ccc(NC(=O)c2ccc3nc(Nc4c(Cl)cccc4Cl)[nH]c3c2)nc1 [Example 195, 2-(2,6-Dichloro-phenylamino)-3H-benzimidazole-5-carboxylic acid (5-methoxy-pyridin-2-yl)-amide]",92
12,"Cc1cnc(NC(=O)c2cc3nc(Nc4c(Cl)cccc4Cl)n(C)c3cc2F)cc1C [Example 421, 2-(2,6-Dichlorophenylamino)-N-(4,5-dimethylpyridin-2-yl)-6-fluoro-1-methyl-1H-benzimidazole-5-carboxamide]",99
13,"Cc1nc(NC(=O)c2cc3nc(Nc4c(Cl)cccc4Cl)n(C)c3cc2F)cc2c1CCCC2 [Example 131, 2-(2,6-Dichloro-phenylamino)-6-fluoro-1-methyl-1H-benzimidazole-5-carboxylic acid (1-methyl-5,6,7,8-tetrahydro-isoquinolin-3-yl)-amide]",96
14,"O=C(Nc1ccc(Cl)c(F)c1)c1cc2nc(Nc3c(Cl)cccc3Cl)[nH]c2cc1F [Example 124, 2-(2,6-Dichloro-phenylamino)-6-fluoro-1H-benzimidazol-5-carboxylic acid (4-chloro-3-fluoro-phenyl)-amide]",98
15,"Cn1c(Nc2c(Cl)cccc2Cl)nc2cc(C(=O)NC3CCC4(CC4)C3)c(F)cc21 (stereo not shown) [Example 415, 2-(2,6-Dichlorophenylamino)-6-fluoro-1-methyl-N-(spiro[2.4]heptan-5-yl)-1H-benzimidazole-5-carboxamide]",100

# Next, values leading:
row,inhibition at 10 µM [%],SMILES
1,90,"CC(C)Oc1cc2[nH]c(Nc3c(Cl)ccc(Cl)c3F)nc2cc1C(=O)NC1CCCCC1 [Example 611, 2-(3,6-Dichloro-2-fluoro-phenylamino)-6-isopropoxy-N-cyclohexyl-1H-benzimidazole-5-carboxamide]"
2,56,"CNC(=O)c1ccc(Cl)c(Nc2nc3cc(C(=O)Nc4ccc(Br)cc4)ccc3n2C)c1 [Example 574, N-(4-Bromophenyl)-2-(2-chloro-5-(methylcarbamoyl)-phenylamino)-1-methyl-1H-benzimidazole-5-carboxamide]"
3,94,"COc1cc2c(cc1C(=O)NC1CCCCC1)nc(Nc1c(Cl)ccc(Cl)c1F)n2C [Example 619, 2-(3,6-Dichloro-2-fluoro-phenylamino)-6-methoxy-N-cyclohexyl-1-methyl-1H-benzimidazole-5-carboxamide]"
4,45,"CC(C)c1ccccc1Nc1nc2cc(C(=O)Nc3ccc(Br)cc3)ccc2n1C [Example 572, N-(4-Bromophenyl)-2-(2-isopropylphenylamino)-1-methyl-1H-benzimidazole-5-carboxamide]"
5,93,"Cn1c(Nc2c(Cl)cccc2Cl)nc2cc(C(=O)NCc3ccccn3)c(F)cc21 [Example 548, 2-(2,6-Dichlorophenylamino)-6-fluoro-1-methyl-N-(pyridin-2-ylmethyl)-1H-benzimidazole-5-carboxamide]"
6,99,"CCCCCCNC(=O)c1cc2nc(Nc3c(F)cccc3Cl)n(C)c2cc1F [Example 458, 2-(2-Chloro-6-fluorophenylamino)-6-fluoro-N-hexyl-1-methyl-1H-benzimidazole-5-carboxamide]"
7,98,"COc1cc2[nH]c(Nc3c(Cl)cccc3Cl)nc2cc1C(=O)NCc1ncccc1OC [Example 525, 2-(2,6-Dichlorophenylamino)-6-methoxy-N-((3-methoxypyridin-2-yl)methyl)-1H-benzimidazole-5-carboxamide]"
8,99,"COc1cc2c(cc1C(=O)NCc1ncccc1OC)nc(Nc1c(Cl)cccc1Cl)n2C [Example 491, 2-(2,6-Dichlorophenylamino)-6-methoxy-N-((3-methoxypyridin-2-yl)-methyl)-1-methyl-1H-benzimidazole-5-carboxamide]"
9,84,"Cn1c(Nc2c(Cl)cccc2Cl)nc2cc(C(=O)Nc3cc(N4CCCC4)ccn3)c(F)cc21 [Example 554, 2-(2,6-Dichlorophenylamino)-6-fluoro-1-methyl-N-(4-(pyrrolidin-1-yl)-pyridin-2-yl)-1H-benzimidazole-5-carboxamide]"

# — patent US8916599B2, “1H-benz imidazole-5-carboxamides as anti-inflammatory agents” (Orexo AB, priority 2008, dated 2014)
